# Measurements published in publication PMC4556614 (PLoS ONE, 2015).
# Legend:
# [1] = target: T1, OCT2 (Homo sapiens, UniProt O15244); assay: in vitro; conditions: human; for inhibition at 3 min, 20 µM / inhibition at 3 min, 200 µM: pH 7.3, probe [14C]metformin, 1000 µM, metformin 1000 μM, net uptake HEK-OCT2 minus HEK-VC; for inhibition at 3 min, 20 µM: % Inhibition of OCT2-dependent MF uptake at 20 µM (mean ± SEM), test drug 20 µM; for inhibition at 3 min, 200 µM: % Inhibition of OCT2-dependent MF uptake at 200 µM (mean ± SEM), test drug 200 µM
# T1 sequence (O15244 whole entry): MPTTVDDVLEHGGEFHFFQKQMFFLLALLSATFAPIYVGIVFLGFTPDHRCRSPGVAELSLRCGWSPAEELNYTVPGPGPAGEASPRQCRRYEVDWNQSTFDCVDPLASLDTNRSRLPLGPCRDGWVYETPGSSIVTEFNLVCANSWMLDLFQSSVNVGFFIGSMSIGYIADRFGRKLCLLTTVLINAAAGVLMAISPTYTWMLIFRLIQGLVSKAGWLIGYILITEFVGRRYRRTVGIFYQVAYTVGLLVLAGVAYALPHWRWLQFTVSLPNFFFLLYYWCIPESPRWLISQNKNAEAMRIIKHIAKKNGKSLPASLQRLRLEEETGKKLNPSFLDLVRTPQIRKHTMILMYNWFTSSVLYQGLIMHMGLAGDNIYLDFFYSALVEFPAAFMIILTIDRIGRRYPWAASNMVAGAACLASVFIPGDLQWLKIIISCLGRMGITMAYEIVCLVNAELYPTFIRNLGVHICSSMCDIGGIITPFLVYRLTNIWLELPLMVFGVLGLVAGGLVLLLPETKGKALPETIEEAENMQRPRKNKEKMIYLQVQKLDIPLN
# [2] = target: T1, OCT2; assay: Inhibition of OCT2-mediated [3H]MPP+ uptake in HEK-OCT2 cells; conditions: for inhibition at 3 min, 20 µM / inhibition at 3 min, 200 µM: pH 7.3, probe [3H]MPP+, 50 µM
# [3] = ref 16 (Regenthal et al.), cited from earlier work
# [4] = test drug 20 µM, MPP+ 50 μM, 3 min, net uptake HEK-OCT2 minus HEK-VC
# [5] = test drug 200 µM, MPP+ 50 μM, 3 min, net uptake HEK-OCT2 minus HEK-VC
SMILES,% Inhibition of OCT2-dependent MF uptake at 200 µM (mean ± SEM) ([1]; pH 7.3),% Inhibition of OCT2-dependent MF uptake at 20 µM (mean ± SEM) ([1]; pH 7.3),"% Inhibition of OCT2-dependent MPP+ uptake at 20 µM (mean ± SEM) [2, 4]","% Inhibition of OCT2-dependent MPP+ uptake at 200 µM (mean ± SEM) [2, 5]",other results
Cc1ccc(-c2nc3ccc(C)cn3c2CC(=O)N(C)C)cc1 [Zolpidem],99.1 ± 0.5,–,–,–,"IC50 ([1]; pH 7.3): 150 nM; % Inhibition of OCT2-dependent MPP+ uptake at 20 µM (mean ± SEM) ([2]; human, pH 7.3): 36.5 ± 4.3; % Inhibition of OCT2-dependent MPP+ uptake at 200 µM (mean ± SEM) ([2]; human, pH 7.3): 90.7 ± 8.2; Cmax,u ([3]; Cmax of unbound drug in humans): 50 nM; Cmax ([3]; maximum steady-state plasma concentration in humans): 650 nM"
CN(C)CCCC1(c2ccc(F)cc2)OCc2cc(C#N)ccc21 (stereo not drawn) [Citalopram],78.9 ± 8.4,66.6 ± 7.9,40.0 ± 9.9%,75.2 ± 9.7%,–
C[C@]12CC[C@@H]3c4ccc(O)cc4CC[C@H]3[C@@H]1CC[C@@H]2O [Estradiol],66.6 ± 2.1,57.9 ± 5.4,10.6 ± 4.2%,19.0 ± 6.5%,–
O=C1Nc2ccc(Cl)cc2C(c2ccccc2Cl)=NC1O (stereo not drawn) [Lorazepam],96.5 ± 1.0,32.0 ± 2.2,0.3 ± 5.1%,17.7 ± 7.3%,–
CC(C)C[C@H](CN)CC(=O)O [Pregabalin],27.2 ± 5.9,-1.3 ± 9.0,–,–,"% Inhibition of OCT2-dependent MPP+ uptake at 20 µM (mean ± SEM) ([2]; human, pH 7.3): -29.6 ± 7.5; % Inhibition of OCT2-dependent MPP+ uptake at 200 µM (mean ± SEM) ([2]; human, pH 7.3): -15.8 ± 5.2"
O=C1[C@H](CC[C@H](O)c2ccc(F)cc2)[C@@H](c2ccc(O)cc2)N1c1ccc(F)cc1 [Ezetimibe],–,–,–,–,"inhibition at 3 min, 20 µM [1]: -6.8 ± 9.7%; inhibition at 3 min, 200 µM [1]: 0.2 ± 10%; inhibition at 3 min, 20 µM ([2]; human): -12.6 ± 12.4%; inhibition at 3 min, 200 µM ([2]; human): -13.2 ± 11.5%"
CC(C)OC(=O)C(C)(C)Oc1ccc(C(=O)c2ccc(Cl)cc2)cc1 [Fenofibrate],73.4 ± 4.7,43.0 ± 9.9,12.8 ± 5.0%,32.0 ± 5.7%,–
"CC(=O)Oc1ccccc1C(=O)O [ASA, acetylsalicylic acid]",1.3 ± 8.9%,-18.7 ± 11.0%,-10.6 ± 5.7%,-1.5 ± 4.5%,–
CCCc1nc(C(C)(C)O)c(C(=O)O)n1Cc1ccc(-c2ccccc2-c2nnn[nH]2)cc1 [Olmesartan],–,–,–,–,"inhibition at 3 min, 20 µM [1]: -0.1 ± 10.9%; inhibition at 3 min, 200 µM [1]: 21.1 ± 7.3%; inhibition at 3 min, 20 µM ([2]; human): -23.8 ± 7.1%; inhibition at 3 min, 200 µM ([2]; human): -21.9 ± 13.3%"
OCCN1CCN(CCCN2c3ccccc3C=Cc3ccccc32)CC1 [Opipramol],99.5 ± 0.7,–,14.0 ± 7.6%,81.6 ± 3.9%,–
Nc1ccc(O)c(C(=O)O)c1 [Mesalazine],59.8 ± 6.7,21.6 ± 11.1,-51.3 ± 6.1%,-68.0 ± 8.5%,–
C[C@H](CS)C(=O)N1CCC[C@H]1C(=O)O [Captopril],-59.0 ± 0.9%,-21.6 ± 19.5%,3.8 ± 5.7%,10.2 ± 6.8%,–
CCOC(=O)C1=C(C)NC(C)=C(C(=O)OC)C1c1cccc([N+](=O)[O-])c1 (stereo not drawn) [Nitrendipine],53.2 ± 3.7,0.4 ± 9.8,4.0 ± 6.3%,-2.4 ± 5.0%,–
CN1CCN(CCCN2c3ccccc3Sc3ccccc32)CC1 [Perazine],92.0 ± 1.8,53.6 ± 3.6,58.5 ± 2.8%,65.9 ± 2.0%,–
O=C(NCCN1CCOCC1)c1ccc(Cl)cc1 [Moclobemide],48.9 ± 2.1,4.3 ± 2.8,-38.7 ± 8.5%,-16.1 ± 17.7%,–
CN1C(=O)C(O)N=C(c2ccccc2Cl)c2cc(Cl)ccc21 (stereo not drawn) [Lormetazepam],92.4 ± 0.5,77.0 ± 0.6,–,–,"% Inhibition of OCT2-dependent MPP+ uptake at 20 µM (mean ± SEM) ([2]; human, pH 7.3): 47.8 ± 8.4; % Inhibition of OCT2-dependent MPP+ uptake at 200 µM (mean ± SEM) ([2]; human, pH 7.3): 69.8 ± 5.3"
COc1ccc(Cl)cc1C(=O)NCCc1ccc(S(=O)(=O)NC(=O)NC2CCCCC2)cc1 [Glibenclamide],87.9 ± 3.2,38.7 ± 11.9,-27.7 ± 5.0%,-31.1 ± 1.7%,–
CCOC(=O)C1=C(C)NC(C)=C(C(=O)OC)C1c1cccc(Cl)c1Cl (stereo not drawn) [Felodipine],15.9 ± 12.1,4.9 ± 6.1,-8.8 ± 12.0%,-16.8 ± 10.8%,–
NC(=O)CN1CCCC1=O [Piracetam],2.5 ± 1.7,3.4 ± 3.4,-9.5 ± 12.1%,-0.5 ± 10.0%,–
CC(CN1c2ccccc2Sc2ccccc21)N(C)C (stereo not drawn) [Promethazine],100.7 ± 1.3,83.7 ± 3.3,5.7 ± 3.8%,76.0 ± 3.0%,–
